According to patent US8361483B2, “Epinecidin-1 as a vaccine adjuvant for enhancing immune responses” (priority 2011, dated 2013):
“Also recorded” adds a separate entry of the source. Where no end group is shown, it is not given here.

Assays:
BHK-21 cells = experiment: Cell proliferation assay, Epi-1 alone on BHK-21 cells; type: cell-based, baby hamster; conditions: Epi up to 1 μg/ml, 48 h, n=3
Text: Baby hamster kidney (BHK)-21 cells were purchased and maintained as per American Type Culture Collection (ATCC no. CCL10, Manassas, Va., USA) instructions. Female C3H/HeN mice, purchased from the National Laboratory Animal Breeding and Research Center (Taiwan) and BioLASCO (Taipei, Taiwan), were housed at the Laboratory Animal Facility, National Taiwan Ocean University NTOU; Keelung, Taiwan). Mice were maintained in pathogen-free sterile isolators according to institutional guidelines, and all food, water, caging, and bedding were sterilized before use. All procedures were approved by the Animal Care and Use Committee of NTOU. The 50% lethal dose (LD50) of JEV in female C3H/HeN mice was determined. The Beijing-1 JEV strain was maintained in suckling mouse brains as previously described.
BHK-21 cells in 48-well plates were assayed with CellTiter 96 Aqueous One Solution (Promega, Madison, Wis., USA) following the vendor's instructions. Epi-1 was administered together with Japanese encephalitis virus (JEV) as co-treatment; Epi-1 was administered 24 h prior to (prophylaxis) or after (curative) the JEV inoculation. After blank value subtraction, the percentage survival against control cells was calculated. […]
The effects of Epi-1 on JEV in BHK-21 cells were studied. […] At 48 h, cell viability of JEV infection was determined (FIG. 1a). […]

[1] = Toxicity of Epi-1 alone injected i.p. in adult mice
Experimental: Six-week-old adult C3H/HeN mice were randomly divided into five groups of 10 mice each. […] After 14 days, a re-challenge was carried out on surviving mice with 50× the LD50 of JEV. Mouse survival and activity were monitored on a daily basis for up to 25 days after the primary injection. For serological studies, serum was collected on days 4, 7, and 21 after treatment. A similar approach was followed to test immunized mice.
JEV was co-injected with or without Epi-1 at various dosages (50, 100, and 200 μg/ml) into adult mice and subsequently boosted (a second JEV challenge without Epi-1) on day 14. The survival rate of mice was recorded for 25 days.

GFIFHIIKGLFHAGKMIHGLV [Epi-1, epinecidin-1]
cell viability (BHK-21 cells): did not affect cell viability; also recorded: no detectable cytotoxicity
survival and behaviour ([1]; 200 μg/ml Epi-1 alone i.p., n=10): all mice survived and behaved normally
toxic effects ([1]; Epi-1 alone, adult mice): No toxic effects were noted; also recorded: no detectable cytotoxicity
